# Results: the METLIN SMRT retention time set (Domingo-Almenara et al. 2019)
# Test: gradient 5% acetonitrile 3 min, to 50% in 2 min, to 85% in 15 min, held 3 min, 100 µL/min
# Conditions: column: Zorbax Extend-C18 2.1 x 50 mm; eluents: water / acetonitrile, 0.1% formic acid
# How it was run: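 A Zorbax Extend-C18 column (2.1 × 50 mm, 1.8 μm) run at 100 μL/min with water and acetonitrile, both containing 0.1% formic acid, separated mixtures of ~100 pure standards. The HPLC was coupled to a quadrupole time-of-flight mass spectrometer operated in positive and negative ionization mode, with dead and dwell volumes of 40 μL and 900 μL. Each retention time was taken from a computationally picked adduct peak that was then manually inspected.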
row,SMILES,RP-LC retention time
1,O=C(CN1C(=O)CCC1=O)N1CC(c2nc(-c3cccc(C(F)(F)F)c3)no2)C1,754 s
2,O=C(CCc1ccccc1)NCC1CCN(Cc2ccccn2)CC1,556 s
3,Cc1nnc(-c2cc(NC(=O)Cc3c(F)cccc3Cl)c(C)s2)o1,886 s
4,OCC1CN(C2CCC2)CC12CCN(Cc1ccccc1F)CC2 (stereo not given),591 s
5,COc1ccccc1C1NC(=O)NC(C)=C1C(=O)OC1CCCC1C (stereo not given),924 s
6,O=C(C1CCN(c2ncnc3c2nc2n3CCCCC2)CC1)N1CCN(c2ncccn2)CC1,669 s
7,CC(C)Oc1ccc(CN2CCn3c(nn(CC4CC4)c3=O)C2)cc1,761 s
8,CCC(=O)Nc1ccc(N2CCN(CC(=O)N(C)C)CC2)cc1C(=O)O,573 s
9,CCCCNC(=O)C1CCN(S(C)(=O)=O)c2ccccc2O1 (stereo not given),728 s
10,COC1CCC12CCN(C(=O)C1CCOCC1)CC2 (stereo not given),636 s
11,CCN(CC)c1ccc(C2=NNC(=O)CC2C)cc1[N+](=O)[O-] (stereo not given),773 s
12,COc1ccc2[nH]cc(C(=O)O)c(=O)c2c1,605 s
13,CNC(=O)c1cc(NC)nc2c(Cl)cccc12,568 s
14,CC(C)n1cnnc1CC1CN(C(=O)Nc2cc(F)ccc2F)C1,631 s
15,O=S(=O)(c1ccccc1Cl)N1CC(COc2ccncc2)C2(CCOCC2)C1 (stereo not given),574 s
16,Cc1ccc(NS(=O)(=O)c2cc3c(s2)CCN(C(=O)C2CC2)C3)cc1C,861 s
17,C=CCn1ccn(-c2ccc(F)c(Cl)c2)c(=O)c1=O,652 s
18,CCc1nc(-c2cc(S(=O)(=O)N3CCC(C(=O)Nc4cccc(C#N)c4)CC3)c(C)s2)no1,1020 s
19,COc1ccccc1NC(=O)NC1CCCC(OC(=O)Nc2ccc(F)cc2)C1 (stereo not given),883 s
20,CCS(=O)(=O)c1ccc(-c2ccc(NS(=O)(=O)c3ccc(Cl)s3)cc2)nn1,810 s

row,SMILES,RP-LC retention time
1,CC(=O)Nc1cccc(C(C(F)(F)F)C(F)(F)F)c1,778 s
2,Cc1nn(-c2ccccc2)c(C)c1S(=O)(=O)N1CCC(C(=O)Nc2ccccc2Cl)CC1,995 s
3,Cc1ccc(N2C(=O)CN(S(C)(=O)=O)CC2(C)C(=O)NCc2ccc(Cl)cc2)cc1C (stereo not given),874 s
4,COc1ccc(Cl)cc1NS(=O)(=O)c1cc(-c2cc(C(F)(F)F)[nH]n2)sc1C,1060 s
5,COc1ccc(NC(=O)C2CCCN(c3nnc4ccccn34)C2)cc1 (stereo not given),637 s
6,CN(C)CCNC(=O)c1ccc(-c2ccnc(N3CCCC3)n2)cc1,560 s
7,O=C(Cn1nc2c3cc(-c4ccc(F)cc4)nn3ccn2c1=O)NC1CCCC1,824 s
8,Cc1nnc(-c2ccc(S(=O)(=O)N3CCC(C)CC3)o2)o1,815 s
9,COc1ccc(-c2noc(N3CCC(N4CCCCC4)CC3)n2)cc1OC,590 s
10,Cn1nc(-c2nnc(-c3ccccc3F)o2)c2c1CCN(S(=O)(=O)c1cccc(C#N)c1)C2,885 s
11,Cc1ccc(NS(=O)(=O)c2n[nH]c(C)c2C(=O)NCCc2cccs2)cc1,912 s
12,COc1cc(Cl)ccc1C(=O)N1CCC(OC2CCN(C)CC2)CC1,606 s
13,O=C(C1CCN(c2cnc(N3CCCCC3)nc2)CC1)N1CCOCC1,599 s
14,Cc1nn(C(C)C(=O)N2CCC(N3CCCCC3)CC2)c(=O)c2nn(-c3ccccc3)c(C)c12 (stereo not given),622 s
15,CCn1c(=O)sc2cc(S(=O)(=O)N3CCC(C(=O)NCc4ccccn4)CC3)ccc21,629 s
16,COc1ccc(C)cc1NC(=O)Cn1nc(C(=O)N2CCN(C)CC2)cc1C,583 s
17,O=C(Cn1cnc2ccccc2c1=O)N1CCCC1,612 s
18,O=C(NC1CC1)C1CCN(c2nc3ccc(-c4cccs4)nc3s2)CC1,809 s
19,COc1ccc(NC(=O)CN2CCc3[nH]c4c(C)c(C)ccc4c(=O)c3C2)cc1Cl,650 s
20,O=C(CCCS(=O)(=O)c1ccc(F)cc1)Nc1nnc(-c2ccno2)o1,637 s

row,SMILES,RP-LC retention time
1,CCCC(=O)Nc1sccc1C(N)=O,625 s
2,O=C(Nc1ccc(Br)cc1)Nc1ccc2nc3n(c(=O)c2c1)CCCC3,740 s
3,O=C(CNC(=O)c1cccc(Br)c1)NCc1cscn1,652 s
4,Cn1nnnc1SCC(=O)OCc1cc(-c2ccco2)on1,728 s
5,CC1=C(c2ccc(Cl)cc2)S(=O)(=O)N=C1N1CCCN(C(=O)c2ccccn2)CC1,765 s
6,Cc1ccc(-c2nc3cnccn3c2Nc2ccc(Cl)cc2)cc1,1000 s
7,CN(C)C(=O)Oc1ccc2c(c1)O/C(=C\C=C\c1ccccc1)C2=O,1060 s
8,Nc1cc(C2CCN(C(=O)c3ccccc3Br)CC2)no1,676 s
9,O=C(NC1CCCC1)C1CCN(c2nc3ccc(-c4cncnc4)nc3s2)CC1,776 s
10,CN1C(=O)c2cc(S(=O)(=O)Nc3ccc(F)cc3)ccc2Oc2cccnc21,906 s
11,COc1ccccc1CNS(=O)(=O)c1cc2c(s1)CCN(C(=O)C1CCC1)C2,877 s
12,CCN1CCN(c2cc(C)c3cc(NC(=S)N4CCN(c5ccccc5F)CC4)ccc3n2)CC1,620 s
13,COc1cccc(NC(=O)N2CCCC(Cn3cnc4cccnc43)C2)c1 (stereo not given),653 s
14,CCc1c(C2CCN(C(=O)Nc3ccc(C)c(C)c3)CC2)noc1N,793 s
15,CC1(C)C(=O)Nc2ccc(S(=O)(=O)N3CCC(c4noc(C5CC5)n4)C3)cc21 (stereo not given),747 s
16,O=C(COc1ccc(Cl)cc1Cl)Nc1ccc2c(c1)N(C(=O)C1CC1)CC2,987 s
17,COc1cccc(N2CCN(C(=O)C3CC(=O)N(c4n[nH]c5cccc(F)c45)C3)CC2)c1 (stereo not given),742 s
18,O=C(Cc1nnc2cc(-c3nc(C4CC4)no3)ccn12)NC1CC1,646 s

# The remaining lines, values ahead:
row,RP-LC retention time,SMILES
1,703 s,CCOc1ccc(NC(=O)NCC(c2cccnc2)c2cn(C)c3ccccc23)cc1 (stereo not given)
2,720 s,Cc1nnc(N2CCCC(C(=O)NCCc3cccs3)C2)c2nn(-c3ccccc3)c(C)c12 (stereo not given)
3,861 s,COc1ccccc1-c1cc(C(=O)N2CCN(c3cc(=O)n(C(C)C)c(=O)n3C(C)C)CC2)[nH]n1
4,787 s,CCN1C(=O)CCc2cc(NC(=O)CCc3ccccc3OC)ccc21
5,708 s,COC(=O)c1ncn2c1C(=O)N(c1ccc(F)cc1C)C(C)(C(=O)NCc1ccccc1)C2 (stereo not given)
6,772 s,CCN(C(=O)Cc1csc2nc(-c3ccc(OC)c(OC)c3)cn12)c1ccccc1
7,771 s,COCCN1C(=O)Cc2ccccc2C1C(=O)NCc1ccc(SC)cc1 (stereo not given)
8,900 s,CCCN1C(=O)COc2ccc(-c3noc(C(C)NC(=O)c4ccccc4)n3)cc21 (stereo not given)
9,863 s,CCc1nc(-c2nnn(-c3ccccc3)c2C)no1
10,1280 s,CCCCn1c(=O)c2ccccc2n(Cc2nc(-c3ccc(Cl)cc3)no2)c1=O
11,616 s,CCNc1cc(C)nc(N2CCN(C(=O)c3ccccc3)CC2)n1
12,924 s,COc1ccc(-c2cn3ccn(-c4cc(C)c(Cl)cc4OC)c(=O)c3n2)cc1
13,781 s,CN1C(=O)c2cccnc2Sc2cc(NC(=O)c3ccccc3Cl)ccc21
14,704 s,COc1ccc(CNC(=O)C2CCN(c3ccc(SCc4ccccc4)nn3)CC2)cc1OC
15,993 s,Cc1cc(OCC(=O)Nc2ccccc2Cl)nc(N2CCN(c3ccccc3)CC2)n1
16,1280 s,Cc1nc(-c2ccccc2)sc1C(=O)Nc1nc(-c2ccc(F)cc2)c(C)s1

row,RP-LC retention time,SMILES
1,552 s,COc1ccc(-c2nnc3n2CCN(Cc2cn(C)nc2C)C3)cc1
2,1010 s,COc1ccccc1N1CCN(c2nccc(-n3nc(C)cc3C)n2)CC1
3,726 s,COC(=O)c1ncn2c1C(=O)N(c1ccc(C)cc1C)C(C)(C(=O)NCc1ccccc1)C2 (stereo not given)
4,658 s,COc1ccccc1CCC(=O)NC(C)C(=O)Nc1nc2ccccc2[nH]1 (stereo not given)
5,678 s,COc1ccccc1NC(=O)NCC(c1cccnc1)c1cn(C)c2ccccc12 (stereo not given)
6,881 s,CCn1nc(CNC(=O)c2ccc(Br)o2)c2ccccc21
7,1140 s,CCc1ccc(CNC(=O)C2CCCN(c3nccnc3Sc3ccccc3)C2)cc1 (stereo not given)
8,994 s,COC(=O)c1cccc(Nc2c(-c3ccc(C)cc3)nc3cnc(Br)cn23)c1
9,591 s,COc1cc(NC(=O)C2CCCN(C(=O)c3cc(-c4ccncc4)n[nH]3)C2)cc(OC)c1OC (stereo not given)
10,860 s,CCOC(=O)c1[nH]c(C)c(C(=O)N(Cc2ccccc2)C(C)C)c1C
11,962 s,CCOc1ccc(C(=O)N2CCc3nc(-c4ccc(OC)cc4)ncc3C2)cc1
12,937 s,Cc1ccccc1CNC(=O)C1(C)CCCN(C(=O)Nc2cccc(F)c2)C1 (stereo not given)
13,998 s,CCc1ccc(N2CC(c3nc(-c4ccc(OC)cc4OC)no3)CC2=O)cc1 (stereo not given)
14,827 s,COC(=O)c1cc(OCC(=O)NCc2ccc3c(c2)OCO3)c2cc(Cl)ccc2n1
15,932 s,Cc1ccc(-c2c(C)noc2C)cc1S(=O)(=O)Nc1ccccc1
16,795 s,COc1cc(Cl)c(NC(=O)C2CCN(C(=O)C3Sc4ccccc4NC3=O)CC2)c(OC)c1 (stereo not given)
